What was measured:
[1] = tested on: O. minuta YY3P2omH strain; test: Antibody production by PMT2-inactivated, HAC1-introduced O. minuta using PMT inhibitor (1c), TR-FRET quantification; assay type: cell-based, Ogataea minuta; conditions: stock solution 2.5 mM; 27° C., 3 days (FIG. 18)
Protocol: (§1) 20 mM Tris-HCl buffer (pH 7.2) comprising 12 μl of 0.97 μg/ml LANCE Eu-W1024 labeled anti-human IgG (PerkinElmer), 8.3 ug/ml of biotin-conjugated mouse anti-human IgG (BD Bioscience), 16.7 ug/ml Surelight APC streptavidin (PerkinElmer), and 10% of Block Ace (Dainippon Pharmaceutical) was applied to a 96-well half area plate (Corning), and 2 μl of a sample solution prepared by adequately diluting the culture solution prepared in (2) above with 20 mM Tris-HCl buffer (pH 7.2) containing 10% of Block Ace was introduced therein, followed by agitation. The sample solution was subjected to the reaction at room temperature in the dark for 1 hour, and fluorescence was then assayed using EnVision (PerkinElmer). The amount of aggregate antibodies produced was determined based on the value at 665 nm/615 nm. Antibodies produced in animal cells (CHO) were used as standard samples. […]
(§2) A platinum loopful of antibody-producing strains with an insertionally inactivated PMT gene and with the HAC1 gene introduced therein prepared in Example 25 (1) was inoculated into 5 ml of B2YP4G medium, cultured at 27° C. for 1 day, and diluted with B2YP4G medium to adjust OD600 to 10. […] Culture was conducted at 27° C. for an additional 3 days, OD600 was measured every 24 hours, and PMT inhibitors (1c) were added in amounts of 0.00032 μM, 0.0016 μM, 0.008 μM, and 0.04 μM, respectively, as the OD600 value increased by 1. […]

[2] = tested on: O. minuta YY3P4omH strain; test: Antibody production by PMT4-inactivated, HAC1-introduced O. minuta using PMT inhibitor (1c), TR-FRET quantification; assay type: cell-based, Ogataea minuta; conditions: stock solution 10 mM; 27° C., 3 days (FIG. 18)
Protocol: as §1, §2

[3] = tested on: O. minuta AA2omH, AA2 ppH, AA2scH and AA2Hy strains; test: Antibody production by O. minuta strains with HAC1 gene introduced using PMT inhibitor (1c), TR-FRET quantification; assay type: cell-based, Ogataea minuta; conditions: 2 μM, plus 0.04 μM as OD600 increased by 1; 27° C., 3 days; HAC1 strains compared with control AA2Hy strain (FIG. 11)
Protocol: as §1
A platinum loopful of the O. minuta AA2omH strain, the O. minuta AA2 ppH strain, the O. minuta AA2scH strain, and the O. minuta AA2Hy strain was inoculated into 5 ml of B2YP4G medium, cultured at 27° C. for 1 day, and then diluted with B2YP4G medium to adjust OD600 at 10. […] A culture supernatant was prepared from the culture solution, and the amount of antibody production was measured by the method described in Example 21 (3).

[4] = tested on: O. minuta AK3RH and O. minuta AK3AHy; test: Antibody production by transformed O. minuta with PMT inhibitor added, Western analysis of culture supernatant; assay type: cell-based, Ogataea minuta; conditions: Western analysis (FIG. 6)
Protocol: O. minuta AK3RH and O. minuta AK3AHy were cultured in BYPG medium (1% yeast extract (Difco), 2% polypeptone (Difco), 0.5% glycerol, and 0.1M phosphate buffer (pH 6.0)) for 2 days, and these strain were cultured in BYPM media [1% yeast extract (Difco), 2% polypeptone (Difco), 1.5% methanol, and 0.1M phosphate buffer (pH 6.0)] to which 0 μM, 1 μM, 5 μM, 10 μM, 20 μM, and 50 μM PMT inhibitors (the rhodanine-3-acetic acid derivative: 5-[[3,4-(1-phenylmethoxy)phenyl]methylene]-4-oxo-2-thioxo-3-thiazolidineacetic acid (compound (1c) described in Bioorganic & Medicinal Chemistry Letters, Vol. 14, p. 3975, 2004)) had been added at 28° C. for 2 days. A culture supernatant was prepared from the culture solution and subjected to SDS-PAGE. Thereafter, the separated protein was blotted on a PVDF membrane, and Western analysis was carried out using a labeled anti-human antibody (anti-human Fc antibody). […] The adequate concentration of the PMT inhibitor to be added was 5 μM. In such a case, the amount of antibody secretion and the percentage of aggregate formation were increased.

[5] = tested on: S. cerevisiae T2K01, T2K02, T2K03 and T2K04 strains; test: Antibody productivity of transformed S. cerevisiae with PMT inhibitor added, sandwich ELISA; assay type: cell-based, Saccharomyces cerevisiae; conditions: 10 μM PMT inhibitor in YPAD medium, 30° C., 3 days (FIG. 8B)
Protocol: The S. cerevisiae T2K01, S. cerevisiae T2K02, S. cerevisiae T2K03, and S. cerevisiae T2K04 strains prepared in Example 14 were cultured using ST medium at 30° C. for 3 days. The culture solution was inoculated into YPAD medium to result in a final concentration of 5% therein, and culture was conducted at 30° C. for 3 days. A culture supernatant was prepared from the culture solution, and the resultant was designated as a sample containing antibodies secreted and produced by yeast. The secreted and produced antibodies were subjected to quantitative assay via sandwich ELISA. TRAIL receptor proteins that were antigens of the anti-TRAIL receptor antibodies were adsorbed on a 96-well plate, a yeast sample was added, and detection was carried out using a peroxidase-labeled human IgG specific Fc antibody (Peroxidase-labeled affinity purified antibody to human IgG (Fc) (KPL)) and the ABTS peroxidase substrate (KPL). Antibodies produced in animal cells (NS0) were used as standard samples.
The S. cerevisiae T2K01, S. cerevisiae T2K02, S. cerevisiae T2K03, and S. cerevisiae T2K04 strains prepared in Example 14 were cultured using ST medium at 30° C. for 3 days. […]

[6] = tested on: O. minuta YY1 strains; test: Evaluation of PMT inhibitor (5a): antibody production by O. minuta YY1, Western analysis and TR-FRET quantification; assay type: cell-based, Ogataea minuta; conditions: 1 μm, plus 0.02 μM as OD600 increased by 1, 27° C.
Protocol: 20 mM Tris-HCl buffer (pH 7.2) comprising 12 μl of 0.97 μg/ml LANCE Eu-W1024 labeled anti-human IgG (PerkinElmer), 8.3 ug/ml of biotin-conjugated mouse anti-human IgG (BD Bioscience), 16.7 ug/ml Surelight APC streptavidin (PerkinElmer), and 10% of Block Ace (Dainippon Pharmaceutical) was applied to a 96-well half area plate (Corning), and 2 μl of a sample solution prepared by adequately diluting the culture solution prepared in (2) above with 20 mM Tris-HCl buffer (pH 7.2) containing 10% of Block Ace was introduced therein, followed by agitation. The sample solution was subjected to the reaction at room temperature in the dark for 1 hour, and fluorescence was then assayed using EnVision (PerkinElmer). The amount of aggregate antibodies produced was determined based on the value at 665 nm/615 nm. Antibodies produced in animal cells (CHO) were used as standard samples. […] However, similar effects of production could be expected even via introduction of the HAC1 gene derived from a species different from a host.
A platinum loopful of the O. minuta YY1 strains into which antibody genes had been introduced was inoculated into 5 ml of B2YP4G medium, cultured at 27° C. for 1 day, and diluted with B2YP4G medium to adjust OD600 at 10. […]

Compound	PMT inhibitor amount added as the OD600 value increased by 1 giving the highest antibody productivity [1]	PMT inhibitor amount added as the OD600 value increased by 1 giving the highest antibody productivity [2]	effects of accelerating antibody secretion [3]	adequate concentration of the PMT inhibitor to be added ([4]; 0, 1, 5, 10, 20 and 50 μM tested in BYPM medium, 28° C., 2 days) [µM]	amount of antibody secretion ([4]; PMT inhibitor at 5 μM)	percentage of aggregate formation ([4]; PMT inhibitor at 5 μM)	synergistic effects of coexpression of the activated HAC1 gene and the RRBP1 gene on antibody production [5]	effects compared with PMT inhibitor (1c) ([6]; 3 days)	productivity of antibody aggregates ([6]; 3 days (FIG. 19, FIG. 20))
5-[[3,4-(1-phenylmethoxy)phenyl]methylene]-4-oxo-2-thioxo-3-thiazolidineacetic acid [PMT inhibitor (1c)]	approximately 0.008 μM	approximately 0.04 μM	more significant effects of accelerating antibody secretion	5	increased	increased	further enhanced	–	–
CC(Oc1cc(/C=C2\SC(=S)N(CC(=O)O)C2=O)ccc1OCCc1ccccc1)c1ccccc1 (stereo not drawn) [PMT inhibitor (5a), {(5Z)-4-oxo-5-[3-(1-phenylethoxy)-4-(2-phenylethoxy)benzylidene]-2-thioxo-1,3-thiazolidin-3-yl}acetic acid]	–	–	–	–	–	–	–	effects equivalent to those of the PMT inhibitor (1c)	tend to increase

Source: patent US8232377B2, “Method for high-level secretory production of protein” (priority 2006, dated 2012)
